Laboratory results published in patent publication US20060275365A1, “Immediate-release and high-drug-load pharmaceutical formulations of micronised (4-chlorophenyl) [4-(4-pyridylmethyl)phthalazin-1-yl] and salts thereof” (priority 2005, published 2006).

Tests used:
[1] = Particle size volume distribution by laser diffraction (Sympatec Helos); format: physicochemical; details: spherical particles presumed
Description: When used herein, the term “micronised” is intended to mean that the particle size distribution is so that at least 90% of the particles have a particle diameter of less than 30 μm (calculated from the volume distribution curve under the presumption of spherical particles), i.e. a d90 value of at the most 30 μm. It is well-known to the skilled person that parameters used to describe a given particle size distribution may vary considerably dependent on the specific equipment and settings used. Therefore, it is important to note that whenever the terms “particle size distribution”, “particle diameter”, “d50”, “d90”, “d95”, “d99”, etc. are used herein it should be understood that the specific values or ranges used in connection therewith are always meant to be determined from the volume distribution curve under the presumption of spherical particles using laser diffraction and the conditions set forth in the section entitled “Determination of particle size distribution” herein.
Determination of the particle size volume distribution of pynasunate was performed by laser diffraction using the following equipment and settings: […]

VEGFR kinases = details: not dependent on a specific ligand; cited from earlier work

SMILES	d50 particle size diameter [1] [μm]	d90 particle size diameter [1] [μm]	inhibition of VEGFR kinases (VEGFR kinases)
Clc1ccc(Nc2nnc(Cc3ccncc3)c3ccccc23)cc1 [pynasunate, (4-chlorophenyl)[4-(4-pyridylmethyl)-phthalazin-1-yl]ammonium hydrogen succinate]	6	15	–
Clc1ccc(Nc2nnc(Cc3ccncc3)c3ccccc23)cc1 [(4-chlorophenyl)[4-(4-pyridylmethyl)-phthalazin-1-yl]]	–	–	inhibitor of all three VEGFR kinases
